# Assay results published in patent US12582638B2, “Pharmaceutical composition for treating cancer, containing mTOR-signaling inhibitor as active ingredient” (KOREA ADVANCED INSTITUTE OF SCIENCE AND TECHNOLOGY, priority 2020, dated 2026).
# Assays:
# Test in all cases: Cell viability, CellTiterGlo, 72 hours
# Format in all cases: cell-based
# [1] = system: DLD-1; settings: Homo sapiens, DLD-1 cells, Colon
# Method: (§1) In addition to the colorectal cells, 120 cancer cell lines treated with various concentrations of lomitapide were assayed for viability. To analyze cell viability, the cells were incubated with lomitapide at 37° C. for 72 hours in a 5% or 10% CO2 atmosphere and then equilibrated at room temperature for 1 hour, followed by addition of CellTiterGlo reagent (Promega). One hour later, luminescence was measured to calculate cell viability (%). The 120 cell lines were purchased from ATCC (American Type Culture Collection, Virginia, USA).
# [2] = system: LN229; settings: Homo sapiens, LN-229, LN229 cells, Brain
# Method: as §1
# [3] = system: SK-MEL-3; settings: Homo sapiens, SK-MEL3, SK-MEL-3 cells, Skin
# Method: as §1
# [4] = system: Hep3B2.1-7; settings: Hep3B2.1-7 cells, Liver
# Method: as §1
# [5] = system: U2OS; settings: Homo sapiens, U2OS cells, Bone
# Method: as §1
# [6] = system: T98G; settings: Homo sapiens, T98G cells, Brain
# Method: as §1
# [7] = system: RPMI 8226; settings: Homo sapiens, RPMI 8226 cells, Blood
# Method: as §1
# [8] = system: H2228; settings: Homo sapiens, NCI-H2228, H2228 cells, Lung
# Method: as §1
# [9] = system: Jurkat; settings: Homo sapiens, Jurkat cells, Blood
# Method: as §1
# [10] = system: Caki-2; settings: Homo sapiens, Caki-2 cells, Kidney
# Method: as §1
# [11] = system: SW948; settings: Homo sapiens, SW948 cells, Colon
# Method: as §1
# [12] = system: H4; settings: H4 cells, Brain
# Method: as §1
# [13] = system: OVCAR-3; settings: Homo sapiens, OVCAR-3 cells, Ovary
# Method: as §1
# [14] = system: SW620; settings: Homo sapiens, SW-620, SW620 cells, Colon
# Method: as §1
# [15] = system: NCI-H1048; settings: Homo sapiens, NCI-H1048 cells, Lung
# Method: as §1
# [16] = system: HCT116; settings: Homo sapiens, HCT-116, HCT116 cells, Colon
# Method: as §1
# [17] = system: LOVO; settings: Homo sapiens, LOVO cells, Colon
# Method: as §1
# [18] = system: NCI-H441; settings: Homo sapiens, NCI-H441 cells, Lung
# Method: as §1
# [19] = system: U251MG; settings: Homo sapiens, U-251, U251MG cells, Brain
# Method: as §1
# [20] = system: MKN-1; settings: Homo sapiens, MKN-1 cells, Stomach
# Method: as §1
# [21] = system: A2780; settings: Homo sapiens, A2780 cells, Ovary
# Method: as §1
# [22] = system: SK-ES-1; settings: Homo sapiens, SK-ES1, SK-ES-1 cells, Bone
# Method: as §1
# [23] = system: AsPC-1; settings: Homo sapiens, ASPC1, AsPC-1 cells, Pancreas
# Method: as §1
# [24] = system: KARPAS 299; settings: Homo sapiens, KARPAS 299 cells, Blood
# Method: as §1
# [25] = system: KG-1; settings: Homo sapiens, KG-1 cells, Blood
# Method: as §1
# [26] = system: MCAS; settings: MCAS cells, Ovary
# Method: as §1
# [27] = system: Hutu 80; settings: Homo sapiens, HuTu80, Hutu 80 cells, Duodenum
# Method: as §1
# [28] = system: MCF-7; settings: Homo sapiens, MCF7, MCF-7 cells, Breast
# Method: as §1
# [29] = system: Ishikawa; settings: Homo sapiens, Ishikawa cells, Endometrium
# Method: as §1
# [30] = system: HCT-15; settings: Homo sapiens, HCT-15 cells, Colon
# Method: as §1
# [31] = system: A172; settings: Homo sapiens, A 172, A172 cells, Brain
# Method: as §1
# [32] = system: T84; settings: Homo sapiens, T84 cells, Colon
# Method: as §1
# [33] = system: SK-N-FI; settings: Homo sapiens, SK-N-FI cells, Brain
# Method: as §1
# [34] = system: MV4-11; settings: Homo sapiens, MV4-11 cells, Blood
# Method: as §1
# [35] = system: NCI-H838; settings: Homo sapiens, NCI-H838 cells, Lung
# Method: as §1
# [36] = system: JVM-3; settings: Homo sapiens, JVM-3 cells, Blood
# Method: as §1
# [37] = system: NCI-H2009; settings: Homo sapiens, NCI-H2009 cells, Lung
# Method: as §1
# [38] = system: BxPC-3; settings: Homo sapiens, BxPC-3 cells, Pancreas
# Method: as §1
# [39] = system: LnCap; settings: Homo sapiens, LnCap cells, Prostate
# Method: as §1
# [40] = system: SK-N-SH; settings: Homo sapiens, SK-N-SH cells, Brain
# Method: as §1
smiles,measurement,setting,value
"O=C(NC1CCN(CCCCC2(C(=O)NCC(F)(F)F)c3ccccc3-c3ccccc32)CC1)c1ccccc1-c1ccc(C(F)(F)F)cc1 [lomitapide, N-(2,2,2-trifluoroethyl)-9-[4-[4-[[[4′-(trifluoromethyl)[1,1′-biphenyl]2-yl]carbonyl]amino]-1-piperidinyl]butyl]-9H-fluoren-9-carboxamide]",IC50,[1],4.5 µM
same,IC50,[2],2.7 µM
same,IC50,[3],1.6 µM
same,IC50,[4],2.7 µM
same,IC50,[5],2.8 µM
same,IC50,[6],3.8 µM
same,IC50,[7],2.1 µM
same,IC50,[8],5.3 µM
same,IC50,[9],3 µM
same,IC50,[10],2.8 µM
same,IC50,[11],4.5 µM
same,IC50,[12],4.6 µM
same,IC50,[13],5.3 µM
same,IC50,[14],3.6 µM
same,IC50,[15],5.5 µM
same,IC50,[16],5 µM
same,IC50,[17],3.4 µM
same,IC50,[18],3.2 µM
same,IC50,[19],5.4 µM
same,IC50,[20],3.7 µM
same,IC50,[21],2.7 µM
same,IC50,[22],3.5 µM
same,IC50,[23],3.6 µM
same,IC50,[24],1.4 µM
same,IC50,[25],5.7 µM
same,IC50,[26],4.5 µM
same,IC50,[27],3 µM
same,IC50,[28],2.8 µM
same,IC50,[29],3.6 µM
same,IC50,[30],3.5 µM
same,IC50,[31],1.9 µM
same,IC50,[32],3.2 µM
same,IC50,[33],3.4 µM
same,IC50,[34],6.2 µM
same,IC50,[35],3.8 µM
same,IC50,[36],4 µM
same,IC50,[37],3.3 µM
same,IC50,[38],5.7 µM
same,IC50,[39],3.5 µM
same,IC50,[40],3.2 µM
